Test results taken from US20030207843A1, “Treatment of drug-resistant human immunodeficiency virus infection” (priority 1999, published 2003).
Where “and” joins values, the source holds several entries; their conditions need not be identical. Equal values may be shown once. Read-outs that look alike come from different tables or passages of the source.

Tests used:
Assay type in all cases: cell-based
[1] = system: HIV-1LAI L214F; assay: p24 reduction assay in MT-2 cells, L214F; conditions: Table 8
Description: (§1) Cells. MT-2 cells (AIDS Research and Reference Reagent Program, National Institute of Allergy and Infectious Diseases, National Institutes of Health) were maintained in RPMI 1640 supplemented with 10% fetal bovine serum (FBS; JRH Biosciences, Lenexa, Kans.), 10 mM HEPES buffer, 50 IU/ml penicillin and 50 μg/ml streptomycin.
(§2) Antiviral Susceptibility Assays. The antiviral activity of each compound was determined by inoculating MT-2 cells with HIV-1LAI at a multiplicity of infection (MOI) of 0.01 TCID50/cell, followed by incubation in the presence of three-fold serial drug dilutions (3 wells per dilution) (see Mellors, et. al., Antimicrob. Agents Chemother. 39:1087-1092). Five or seven days after infection, culture supernatants were harvested, lysed with 0.5% triton-X 100 and assayed for p24 antigen concentration using a commercial ELISA assay (DuPont, NEN Products, Wilmington, Del.). The antiviral activity of the compounds is expressed as the IC50, which is the concentration required to inhibit 50% of p24 antigen production. The fold-resistance of a test virus is calculated by dividing the IC50 of the test virus by the IC50 of the HIV-1LAI control virus.
(§3) Generation of Mutant Recombinant HIV-1. […]
(§4) Recombinant viruses containing the mutations selected by invention compounds were also evaluated for their susceptibility to AZT, as shown in Table 8.

[2] = system: HIV-1LAI S117T/L214F; assay: p24 reduction assay in MT-2 cells, S117T/L214F; conditions: Table 8
Description: as §1, §2
(§5) Generation of Mutant Recombinant HIV-1. HIV-1 containing the desired mutations were generated by oligonucleotide directed mutagenesis (Altered Sites II, Promega) as previously described (Mellors, et. al., Molecular Pharm. 41:446-451). After mutagenesis, mutant RT was subcloned into the pxxHIV-1LAI cloning vector using the silent XmaI and XbaI restriction sites located at the 5′ and 3′ ends of RT. Clones were DNA sequenced to verify the presence of the desired mutation(s) and electroporated into MT-2 cells as described above to generate infectious mutant recombinant HIV-1.
Mutant RT was generated via oligonucleotide-directed mutagenesis and ligated into the pXXHIV-1LAI cloning vector. […]
as §4

[3] = system: HIV-1LAI M164I; assay: p24 reduction assay in MT-2 cells, M164I; conditions: Table 8
Description: as §1, §2, §3, §4

[4] = system: HIV-1LAI M164I/L214F; assay: p24 reduction assay in MT-2 cells, M164I/L214F
Description: as §1, §2, §5
Mutant RT was generated via oligonucleotide-directed mutagenesis and ligated into the pXXHIV-1LAI cloning vector. Cloning was facilitated by the presence of two silent restriction sites at the 5′ and 3′ ends (Xma1 and Xba1, respectively) of pXXHIV-1LAI RT. Infectious mutant recombinant HIV-1 was generated by electroporating MT-2 cells with mutated pXXHIV-1LAI clones. The presence of the desired mutations was verified by DNA sequencing.
DNA sequencing of the RT gene (amino acid (AA) 1 to 350) from MB-PFA resistant virus identified three mutations: V75L, M164I and L214F. Recombinant viruses encoding the V75L, M164I and L214F mutations were constructed and tested for susceptibility to MB-PFA.
as §4

[5] = system: HIV-1LAI S117T/4XAZT; assay: p24 reduction assay in MT-2 cells, S117T/4XAZT; conditions: Table 8
Description: as §1, §2, §3, §4

[6] = system: HIV-1LAI M164I/4XAZT; assay: p24 reduction assay in MT-2 cells, M164I/4XAZT; conditions: Table 8
Description: as §1, §2, §3, §4

[7] = system: recombinant HIV-1 with V75L alone or in combination with L214F or M164I; assay: p24 reduction assay in MT-2 cells, V75L recombinants; conditions: Example 6
Description: as §2
as §5, with “Clones were DNA sequenced to verify the presence of the desired mutation(s) and electroporated into MT-2 cells as described above to generate infectious mutant recombinant HIV-1.” left out

[8] = system: HIV-1LAI selected with PFA, passage 15 (S117T); assay: Susceptibility of virus selected in vitro with PFA, passage 15
Description: as §2
Selection of Resistant Viruses. […] Viral cytopathic effects (CPE) were monitored daily. […] The passaged virus was monitored regularly for a reduction in susceptibility to the compounds by determining the EC50 relative to unpassaged HIV-1LAI (Mellors, et. al., Antimicrob. Agents Chemother. 39:1087-1092). […]
As controls for the invention compound selections, HIV-1LAI was passaged in the presence and absence of unmodified PFA. […] None of the mutations selected by the invention compounds or free PFA were detected in control viruses passaged in the absence of drug.

[9] = system: panel of drug resistant HIV-1 viruses; assay: p24 reduction assay, panel of drug resistant HIV-1 viruses (summary); conditions: Human immunodeficiency virus 1, read-out: EC50 values (range over strains)
Description: The μM concentration required to produce 50% inhibition of replication of the drug-resistant strain of HIV (EC50) was determined as shown in Table 1. Drug effects were measured by assaying p24 (a viral protein) in the culture medium.

`Cc1cn([C@H]2C[C@H](N=[N+]=[N-])[C@@H](CO)O2)c(=O)[nH]c1=O` [AZT, 3′-Azido-3′-deoxythymidine] showed an EC50 ([1]; Human immunodeficiency virus 1, MT2, L214F, read-out: AZT EC50) of 35 ± 33 nM, a Fold resistance ([1]; L214F relative to wild type virus) of 1.7 and an EC50 ([2]; Human immunodeficiency virus 1, MT2, S117T/L214F, read-out: AZT EC50) of 22 ± 10 nM. For the same molecule, the Fold resistance ([2]; S117T/L214F relative to wild type virus) was 1.1, the EC50 ([3]; Human immunodeficiency virus 1, MT2, M164I, read-out: AZT EC50) was 12 ± 4 nM and the Fold resistance ([3]; M164I relative to wild type virus) was 0.6. The EC50 ([4]; Human immunodeficiency virus 1, MT2, Table 8, M164I/L214F, read-out: AZT EC50) was 8 ± 3 nM, the Fold resistance ([4]; Table 8, M164I/L214F relative to wild type virus) was 0.4 and the EC50 ([5]; Human immunodeficiency virus 1, MT2, S117T/4XAZT, read-out: AZT EC50) was 40 ± 6 nM. For the same molecule, the Fold resistance ([5]; S117T/4XAZT relative to wild type virus) was 1.4, the EC50 ([6]; Human immunodeficiency virus 1, MT2, M164I/4XAZT, read-out: AZT EC50) was 43 ± 22 nM and the Fold resistance ([6]; M164I/4XAZT relative to wild type virus) was 1.1.

For `CCCCCCCCCCCCCCCCCCOC[C@H](COP(=O)(O)C(=O)O)OC` [MB-PFA, 1-O-octadecyl-2-O-methyl-sn-glycero-3-PFA], the Fold resistance ([4]; Example 6, recombinant virus with M164I and L214F) was 9.3 fold, the EC50 ([4]; Example 6, recombinant virus with M164I and L214F, read-out: EC50) was 8100 nM and the Fold resistance [7] was < 3 fold.

In the case of `O=C(O)P(=O)(O)O` [PFA, phosphonoformate, reference compound], the EC50 ([8]; Human immunodeficiency virus 1, Table 6, passage 15 (S117T)) is reported as 122000 nM, the Fold resist. ([8]; Table 6, passage 15, relative to passage 0) is reported as 23 and 23.2 and the EC50 [9] is reported as 7600 to 37400 nM.
